We go through one compound from patent US4920016A, “Liposomes with enhanced circulation time” (Linear Technology, Inc., priority 1987, dated 1990).

This series is described as follows: Uptake of doxorubicin into J6456 mouse tumors. The settings on record: in vivo, J6456 mice, IV, fluorometric (Table 14), read-out: Percent of Injected Dose (DXR)/q Tumor (SD). The protocol: Sized MLVs having one of the three lipid compositions shown in Table 14 below were prepared as above. Doxorubicin was included in the hydration buffer, at a concentration of about 5 mg/ml, and free drug was removed from the sized liposomes by gel filtration.
Mice innoculated with J6456 lymphoma cells were injected IV with the MLVs (1 umole phospholipid/animal) or with an equivalent amount of free doxorubicin. Tissue distribution of the drug, 24 hours post administration, was determined fluorometrically, with the results shown in Tables 13 below.

Regarding `COc1cccc2c1C(=O)c1c(O)c3c(c(O)c1C2=O)C[C@@](O)(C(=O)CO)C[C@@H]3O[C@H]1C[C@H](N)[C@H](O)[C@H](C)O1` [FREE DXR, doxorubicin], the tissue uptake at 24 h is 0.4 %ID/g.
